In data set [1] the target is T1, ATP-binding cassette sub-family C member 5 (Homo sapiens, UniProt O15440). Put plainly: TP_TRANSPORTER: efflux in MRP5-expressing MDCKII cells. It counts as functional, cell-based. The settings on record: dog, mdck-ii.
Data set [2] addresses T1, ATP-binding cassette sub-family C member 5. The experiment in a line: TP_TRANSPORTER: inhibition of PMEA efflux (PMEA: 1 uM) in MRP5-expressing MDCKII cells. The format is functional, cell-based, MDCK-II.

The values below come from ChEMBL document CHEMBL2074483, “Multidrug-resistance protein 5 is a multispecific organic anion transporter able to transport nucleotide analogs” (Proc Natl Acad Sci U S A, 2000).

T1 sequence (O15440 whole entry): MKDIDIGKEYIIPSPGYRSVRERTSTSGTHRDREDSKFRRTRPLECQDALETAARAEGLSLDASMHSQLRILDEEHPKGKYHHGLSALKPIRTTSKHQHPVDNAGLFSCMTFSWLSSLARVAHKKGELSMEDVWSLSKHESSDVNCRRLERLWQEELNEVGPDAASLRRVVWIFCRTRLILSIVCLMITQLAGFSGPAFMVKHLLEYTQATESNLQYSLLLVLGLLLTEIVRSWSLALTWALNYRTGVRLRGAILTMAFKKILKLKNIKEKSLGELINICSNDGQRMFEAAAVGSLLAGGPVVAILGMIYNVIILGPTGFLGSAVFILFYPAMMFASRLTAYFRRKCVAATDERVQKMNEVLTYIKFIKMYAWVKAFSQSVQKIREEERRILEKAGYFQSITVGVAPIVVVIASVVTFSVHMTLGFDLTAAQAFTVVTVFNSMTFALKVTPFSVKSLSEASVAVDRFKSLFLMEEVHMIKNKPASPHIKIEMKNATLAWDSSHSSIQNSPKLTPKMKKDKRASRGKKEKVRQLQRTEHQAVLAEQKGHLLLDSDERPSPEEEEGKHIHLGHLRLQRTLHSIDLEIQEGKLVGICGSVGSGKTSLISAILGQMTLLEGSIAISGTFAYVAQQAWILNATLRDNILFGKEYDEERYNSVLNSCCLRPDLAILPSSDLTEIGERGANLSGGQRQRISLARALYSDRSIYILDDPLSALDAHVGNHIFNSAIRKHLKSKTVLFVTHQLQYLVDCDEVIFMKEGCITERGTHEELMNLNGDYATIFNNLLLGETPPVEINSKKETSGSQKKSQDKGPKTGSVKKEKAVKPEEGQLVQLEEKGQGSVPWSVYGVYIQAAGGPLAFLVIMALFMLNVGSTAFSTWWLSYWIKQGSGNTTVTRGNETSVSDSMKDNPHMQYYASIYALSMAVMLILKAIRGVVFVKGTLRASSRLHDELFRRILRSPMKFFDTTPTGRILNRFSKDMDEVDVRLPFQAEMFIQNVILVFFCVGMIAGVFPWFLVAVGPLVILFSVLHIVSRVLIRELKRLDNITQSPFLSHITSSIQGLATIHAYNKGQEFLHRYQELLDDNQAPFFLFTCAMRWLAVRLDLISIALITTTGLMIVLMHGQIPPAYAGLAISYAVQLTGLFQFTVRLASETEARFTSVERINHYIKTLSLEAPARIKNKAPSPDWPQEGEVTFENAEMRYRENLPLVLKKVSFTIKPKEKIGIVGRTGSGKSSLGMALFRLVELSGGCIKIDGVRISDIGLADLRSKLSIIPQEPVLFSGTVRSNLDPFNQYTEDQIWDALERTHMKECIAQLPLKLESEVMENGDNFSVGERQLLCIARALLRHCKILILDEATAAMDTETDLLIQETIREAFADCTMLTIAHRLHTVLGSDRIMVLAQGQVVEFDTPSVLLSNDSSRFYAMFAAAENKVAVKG

`Nc1ncnc2c1ncn2CCOCP(=O)(O)O` [ADEFOVIR]: the Activity entry in data set [1] was “substrate [+]”.

As for `Sc1ncnc2nc[nH]c12` [MERCAPTOPURINE ANHYDROUS], the Activity entry in data set [1] was “substrate [+]”.

For the molecule `O=C1C(CC[S+]([O-])c2ccccc2)C(=O)N(c2ccccc2)N1c1ccccc1` (stereo not drawn) [SULFINPYRAZONE], the IC50 in data set [2] was below 100 µM.
